Results reported in patent US9499551B2, “Substituted pyrrolo[2,3-b]pyridines for treating cancer or inflammatory diseases” (Confluence Life Sciences, Inc., priority 2014, dated 2016).

Columns and labels:
[1] = tested on: IL-6 Production in Human Peripheral Blood Mononuclear Cells (PBMC); experiment: LPS stimulated IL-6 production in PBMC cells; format: cell-based; conditions: read-out: IL-6 Production Inhibition IC50
TAK1-TAB1 = biological target: T1, TAK1-TAB1 (Homo sapiens, UniProt O43318); experiment: TAK1-TAB1 binding inhibitory potency (LanthaScreen competitive binding assay, kinase tracer-236); conditions: 10 nM TAK1-TAB1, 100 nM kinase tracer-236; read-out: TAK1-Tab Inhibition IC50
T1 sequence (O43318 with tags, fused parts or gaps limits assumed): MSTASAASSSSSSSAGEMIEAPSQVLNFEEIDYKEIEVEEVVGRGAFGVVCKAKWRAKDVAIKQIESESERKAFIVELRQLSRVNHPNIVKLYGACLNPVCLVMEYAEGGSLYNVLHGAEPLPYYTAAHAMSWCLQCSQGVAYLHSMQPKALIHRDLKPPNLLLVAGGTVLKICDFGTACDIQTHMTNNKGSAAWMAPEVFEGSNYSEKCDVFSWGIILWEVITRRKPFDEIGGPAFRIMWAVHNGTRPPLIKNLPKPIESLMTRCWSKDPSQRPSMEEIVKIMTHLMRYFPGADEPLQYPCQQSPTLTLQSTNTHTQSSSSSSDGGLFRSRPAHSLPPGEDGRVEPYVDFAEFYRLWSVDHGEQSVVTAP
Procedure, shortened: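 Compounds were tested for TAK1-TAB1 binding in a 384-well LanthaScreen competitive FRET assay. TAK1-TAB1 (10 nM) and Eu-anti-his antibody (2 nM) were preincubated with compound for two hours before adding 100 nM Alexa Fluor 647 kinase tracer-236. The buffer was 20 mM HEPES pH 7.5, 10 mM MgCl2, 0.01% BSA, 0.0005% Tween-20 and 2% DMSO. IC50 came from 4-parameter logistic fits of emission ratio over an 11-point series from 20 μM to 0.34 nM.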

Row | Structure (SMILES) | IC50 (TAK1-TAB1) | IC50 [1]
1 | N#Cc1cccc(-c2cnc3[nH]cc(/C=C/C(N)=O)c3c2)c1 [Example 18, 3-[5-(3-Cyano-phenyl)-1H-pyrrolo[2,3-b]pyridin-3-yl]-acrylamide] | ≤ 1000 nM | ≤ 1000 nM
2 | CC(C)NC(=O)c1ccc(-c2cnc3[nH]cc(/C=C/C(N)=O)c3c2)cn1 [Example 280, (E)-5-(3-(3-amino-3-oxoprop-1-en-1-yl)-1H-pyrrolo[2,3-b]pyridin-5-yl)-N-isopropyl-picolinamide] | ≤ 1000 nM | ≤ 1000 nM
3 | C[C@@H](O)CNC(=O)c1ccc(-c2cnc3[nH]cc(/C=C/C(N)=O)c3c2)cc1 [Example 294, (R,E)-4-(3-(3-amino-3-oxoprop-1-en-1-yl)-1H-pyrrolo[2,3-b]pyridin-5-yl)-N-(2-hydroxypropyl) benzamide] | ≤ 1000 nM | > 1000 nM

Further lines, with some results ahead:

Row | IC50 (TAK1-TAB1) | Structure (SMILES) | IC50 [1]
4 | ≤ 1000 nM | CC(=O)c1ccc(-c2cnc3[nH]cc(/C=C/C(N)=O)c3c2)cc1 [Example 245, (E)-3-(5-(4-acetylphenyl)-1H-pyrrolo[2,3-b]pyridin-3-yl)acrylamide] | ≤ 1000 nM
5 | ≤ 1000 nM | CSc1ncc(-c2cnc3[nH]cc(/C=C/C(N)=O)c3c2)cn1 [Example 287, (E)-3-(5-(2-(methylthio)pyrimidin-5-yl)-1H-pyrrolo[2,3-b]pyridin-3-yl)acrylamide] | ≤ 1000 nM
